Data from ChEMBL document CHEMBL5154650, “Identification and optimization of biphenyl derivatives as novel tubulin inhibitors targeting colchicine-binding site overcoming multidrug resistance” (Eur J Med Chem, 2022).
Blank lines part the entries; values can stand above or below the compound they belong to. Calls of active or inactive are those of the source. The calls are words filed in the database; no cut-off is given here.

How the values were obtained:
A549 [1] = test: Antiproliferative activity against human A549 cells measured after 72 hrs by SRB assay; type: functional, cell-based; details: Homo sapiens, A549, 72 h
[2] = Metabolic stability in human liver microsomes assessed as intrinsic clearance at 1 uM in presence of NADPH measured by LC-MS/MS analysis; type: ADME, Microsome
K562 = test: Antiproliferative activity against human K562 cells measured after 72 hrs by SRB assay; type: functional, cell-based; details: K562, 72 h
[3] = Antiproliferative activity against human KB/VCR cells measured after 72 hrs by SRB assay; type: functional, cell-based
[4] = Resistant index, ratio IC50 for K562/Adr cells over IC50 for K562 cells; type: functional
[5] = Resistant index, ratio IC50 for KB/VCR cells over IC50 for KB cells; type: functional
HeLa = test: Antiproliferative activity against human HeLa cells measured after 72 hrs by SRB assay; type: functional, cell-based
K562/Adr = test: Antiproliferative activity against human K562/Adr cells measured after 72 hrs by SRB assay; type: functional, cell-based
KB = test: Antiproliferative activity against human KB cells measured after 72 hrs by SRB assay; type: functional, cell-based
4T1 [6] = test: Antiproliferative activity against mouse 4T1 cells measured after 72 hrs by SRB assay; type: functional, cell-based; details: 4T1, 72 h
4T1 [7] = test: Antitumor activity against mouse 4T1 cells xenografted in female BALB/c mouse assessed as T/C at 5 mg/kg, ip administered every other day for 14 days; type: functional; details: time 14 day
[8] = Antiproliferative activity against human MRC9 cells measured after 72 hrs by SRB assay; type: functional, cell-based; details: MRC9, 72 h
HL-60 = test: Antiproliferative activity against human HL-60 cells measured after 72 hrs by SRB assay; type: functional, cell-based; details: HL-60, 72 h
[9] = Toxicity in female BALB/c mouse xenografted with mouse 4T1 cells assessed as body weight loss at 5 mg/kg, ip administered every other day for 14 days and measured after 7 days; type: organism-based; details: in vivo, 336 h, time 14 day
A549 [10] = test: Induction of cell cycle arrest in human A549 cells assessed as accumulation at G2/M phase at 20 nM measured propidium iodide based flow cytometry analysis; type: functional
[11] = Resistant index, ratio IC50 for KB-V1 cells over IC50 for KB cells; type: functional
HT-1080 = test: Antiproliferative activity against human HT-1080 cells measured after 72 hrs by SRB assay; type: functional, cell-based; details: HT-1080, 72 h
THP-1 = test: Antiproliferative activity against human THP-1 cells measured after 72 hrs by SRB assay; type: functional, cell-based; details: THP-1, 72 h
RAW264.7 = test: Antiproliferative activity against mouse RAW264.7 cells measured after 72 hrs by SRB assay; type: functional, cell-based; details: RAW264.7, 72 h
KB-V1 = test: Antiproliferative activity against human KB-V1 cells measured after 72 hrs by SRB assay; type: functional, cell-based; details: KB-V1, 72 h
A549 [12] = test: Induction of cell cycle arrest in human A549 cells assessed as accumulation at G2/M phase at 200 nM measured propidium iodide based flow cytometry analysis; type: functional
Tubulin (Homo sapiens) [13] = biological target: T1, Tubulin (Homo sapiens) (UniProt P68371+Q9H4B7+P0DPH7+P68366+Q13509+Q71U36+P04350+Q3ZCM7+P07437+P68363+Q9BQE3+Q6PEY2+Q13885+Q9BVA1+Q9BUF5); test: Inhibition of tubulin (unknown origin) polymerization incubated for 15 mins at 30 uM relative to control; type: protein-complex assay
Tubulin (Homo sapiens) [14] = biological target: T1, Tubulin (Homo sapiens); test: Inhibition of tubulin polymerization in human A549 cells assessed as disruption of microtubule network at 200 nM measured by DAPI staining method; type: cell-based
4T1 [15] = test: Antitumor activity against mouse 4T1 cells xenografted in female BALB/c mouse assessed as T/C at 25 mg/kg, ip administered every other day for 14 days; type: functional; details: time 14 day
Tubulin (Homo sapiens) [16] = biological target: T1, Tubulin (Homo sapiens); test: Inhibition of tubulin polymerization in human A549 cells assessed as disruption of microtubule network at 200 nM measured after 24 hrs by DAPI staining method; type: cell-based
A549 [17] = test: Induction of cell morphological changes in human A549 cells at 400 nM measured after 24 hrs; type: functional, cell-based
Tubulin (Homo sapiens) [18] = biological target: T1, Tubulin (Homo sapiens); test: Inhibition of tubulin polymerization in human A549 cells at 3 to 100 uM; type: cell-based; details: dose 3-100 µM
A549 [19] = test: Induction of cell cycle arrest in human A549 cells assessed as accumulation at G2/M phase at 400 nM measured after 24 hrs by propidium iodide based flow cytometry analysis; type: functional
4T1 [20] = test: Antitumor activity against mouse 4T1 cells xenografted in female BALB/c mouse assessed as T/C at 10 mg/kg, ip administered every other day for 14 days; type: functional; details: time 14 day

SMILES: COc1cc(C#N)cc(-c2ccc(C(=O)c3ccc(O)cc3)cc2)c1
IC50 (A549 [1]): > 10000 nM

SMILES: COc1cc(C#N)cc(-c2ccc(C(=O)c3ccccc3)c(N)c2)c1.Cl
CLH [2]: 0.581 mL/min/g
IC50 (K562): 7.8 nM
IC50 [3]: 6.1 nM
Ratio IC50 [4]: 0.9
Ratio IC50 [5]: 1
IC50 (HeLa): 4.2 nM
IC50 (K562/Adr): 7.1 nM
IC50 (KB): 6.3 nM
IC50 (4T1 [6]): 7.7 nM
T/C (4T1 [7]): 29.9%
IC50 [8]: 166 nM
IC50 (HL-60): 6.8 nM
Activity [9]: Non-Toxic
Activity (A549 [10]): 90%
Ratio IC50 [11]: 1
IC50 (HT-1080): 6.3 nM
IC50 (A549 [1]): 5 nM
IC50 (THP-1): 7.4 nM
IC50 (RAW264.7): 7.6 nM
IC50 (KB-V1): 6.3 nM

SMILES: COc1ccc(C(=O)c2ccc(-c3cc(C#N)cc(OC)c3)cc2)cc1
IC50 (A549 [1]): > 10000 nM

SMILES: COc1cc(OC)cc(C(=O)c2ccc(-c3cc(C#N)cc(OC)c3)cc2)c1
IC50 (A549 [1]): 72 nM

SMILES: N#Cc1ccc(-c2ccc(C(F)(F)F)cc2)cc1
IC50 (A549 [1]): 5900 nM

SMILES: COc1cc(C#N)cc(-c2ccc(Cc3ccccc3)cc2)c1
IC50 (A549 [1]): > 10000 nM

SMILES: CC[C@]1(O)C[C@H]2CN(CCc3c([nH]c4ccccc34)[C@@](C(=O)OC)(c3cc4c(cc3OC)N(C=O)[C@H]3[C@@](O)(C(=O)OC)[C@H](OC(C)=O)[C@]5(CC)C=CCN6CC[C@]43[C@@H]65)C2)C1 [VINCRISTINE]
IC50 [3]: 2010 nM
Ratio IC50 [5]: 301
IC50 (KB): 6.7 nM
Ratio IC50 [11]: 1282.2
IC50 (KB-V1): 8570 nM

SMILES: COc1cc(C#N)cc(-c2ccc(C(=O)c3ccccn3)cc2)c1
IC50 (A549 [1]): 1640 nM

SMILES: COc1cc2c(c(OC)c1OC)-c1ccc(OC)c(=O)cc1[C@@H](NC(C)=O)CC2 [COLCHICINE]
CLH [2]: 0.384 mL/min/g
IC50 (K562): 102 nM
IC50 [3]: 294 nM
Ratio IC50 [4]: 64.4
Ratio IC50 [5]: 16.1
IC50 (K562/Adr): 6550 nM
IC50 (KB): 18.2 nM
Ratio IC50 [11]: 73.5
IC50 (KB-V1): 1340 nM

SMILES: COc1cccc(C(=O)c2ccc(-c3cc(C#N)cc(OC)c3)cc2)c1
IC50 (A549 [1]): 54 nM

SMILES: COc1cc(C#N)cc(-c2ccc(C(=O)c3ccnc(OC)c3)cc2)c1
IC50 (A549 [1]): 322 nM

SMILES: COc1cc(C#N)cc(-c2ccc(C(=O)c3cccs3)cc2)c1
IC50 (A549 [1]): 1190 nM

SMILES: COc1cc(C#N)cc(-c2ccc(C(=O)c3ccccc3)c(O)c2)c1
IC50 (A549 [1]): 114 nM

SMILES: COc1cc(C#N)cc(-c2ccc(C(=O)c3cccc(O)c3)cc2)c1
IC50 (A549 [1]): 78 nM

SMILES: CC(=O)O[C@H]1C(=O)[C@@]2(C)[C@H]([C@H](OC(=O)c3ccccc3)[C@]3(O)C[C@H](OC(=O)[C@H](O)[C@@H](NC(=O)c4ccccc4)c4ccccc4)C(C)=C1C3(C)C)[C@]1(OC(C)=O)CO[C@@H]1C[C@@H]2O [PACLITAXEL]
T/C (4T1 [20]): 49.2%

SMILES: COc1cc(C#N)cc(-c2ccc(C(=O)c3ccccc3O)cc2)c1
IC50 (A549 [1]): 135 nM

The next lines start with results.

IC50 (A549 [1]): 6540 nM
SMILES: O=C(c1ccccc1)c1ccc(-c2cccc(C(F)(F)F)c2)cc1

IC50 (A549 [1]): > 10000 nM
SMILES: O=C(c1ccccc1)c1ccc(-c2cc(C(F)(F)F)cc(C(F)(F)F)c2)cc1

IC50 (A549 [1]): 306 nM
SMILES: COc1cc(C#N)cc(-c2ccc(C(=O)c3ccccc3Cl)cc2)c1

IC50 (A549 [1]): 2910 nM
SMILES: COc1ccccc1-c1ccc(C(=O)c2ccccc2)cc1

IC50 (A549 [1]): > 10000 nM
SMILES: COc1cc(OC)c(OC)c(-c2ccc(C(=O)c3ccccc3)cc2)c1

IC50 (K562): 144 nM
IC50 (K562/Adr): 226 nM
IC50 (KB): 37.2 nM
inhibition (Tubulin (Homo sapiens) [13]): 36.1%
IC50 (A549 [1]): 62 nM
inhibition (Tubulin (Homo sapiens) [14]): Active
IC50 (KB-V1): 36.1 nM
SMILES: COc1cc(C#N)cc(-c2ccc(C(=O)c3ccccc3)cc2)c1
IC50 [3]: 30.4 nM
Ratio IC50 [4]: 1.6
Ratio IC50 [5]: 0.8
Ratio IC50 [11]: 1
Activity (A549 [12]): 90%
T/C (4T1 [15]): 47.2%

inhibition (Tubulin (Homo sapiens) [16]): Active
IC50 (K562): 137 nM
inhibition (Tubulin (Homo sapiens) [18]): Active
IC50 (K562/Adr): 305 nM
IC50 (KB): 52.7 nM
inhibition (Tubulin (Homo sapiens) [13]): 23.9%
IC50 (A549 [1]): 94 nM
IC50 (KB-V1): 51.7 nM
SMILES: COc1cc(OC)cc(-c2ccc(C(=O)c3ccccc3)cc2)c1
Activity (A549 [17]): Active
IC50 [3]: 42.5 nM
Ratio IC50 [5]: 0.8
Activity (A549 [19]): Active
Ratio IC50 [11]: 1

IC50 (A549 [1]): > 10000 nM
SMILES: COc1ccc(-c2ccc(C(=O)c3ccccc3)cc2)cc1
